Measured values as given in PubChem BioAssay (NCI).
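Where inhibition never reached the appropriate level, the endpoint shown equals the highest concentration tested. Otherwise, values were interpolated linearly from a five-concentration, 48-hour dose response in 96-well plates. TGI: total growth inhibition.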

Key:
Test in all cases: inhibition of tumour cell growth, NCI panel, 48 h
786-0 renal = tested on: 786-0 renal
DU-145 prostate = tested on: DU-145 prostate
EKVX NSCLC = tested on: EKVX NSCLC
HL-60(TB) leukemia = tested on: HL-60(TB) leukemia
HOP-92 NSCLC = tested on: HOP-92 NSCLC
KM12 colon = tested on: KM12 colon
MOLT-4 leukemia = tested on: MOLT-4 leukemia
NCI-H23 lung = tested on: NCI-H23 lung
NCI-H522 lung = tested on: NCI-H522 lung
NCI/ADR-RES ovarian = tested on: NCI/ADR-RES ovarian
OVCAR-5 ovarian = tested on: OVCAR-5 ovarian
PC-3 prostate = tested on: PC-3 prostate
SF-295 CNS = tested on: SF-295 CNS
SK-MEL-5 melanoma = tested on: SK-MEL-5 melanoma
SN12C renal = tested on: SN12C renal
SNB-75 CNS = tested on: SNB-75 CNS
T-47D breast = tested on: T-47D breast
UACC-62 melanoma = tested on: UACC-62 melanoma

Row | Structure (SMILES) | TGI (786-0 renal) [µM] | TGI (DU-145 prostate) [µM] | TGI (EKVX NSCLC) [µM] | TGI (HL-60(TB) leukemia) [µM] | TGI (HOP-92 NSCLC) [µM] | TGI (KM12 colon) [µM] | TGI (MOLT-4 leukemia) [µM] | TGI (NCI-H23 lung) [µM] | TGI (NCI-H522 lung) [µM] | TGI (NCI/ADR-RES ovarian) [µM] | TGI (OVCAR-5 ovarian) [µM] | TGI (PC-3 prostate) [µM] | TGI (SF-295 CNS) [µM] | TGI (SK-MEL-5 melanoma) [µM] | TGI (SN12C renal) [µM] | TGI (SNB-75 CNS) [µM] | TGI (T-47D breast) [µM] | TGI (UACC-62 melanoma) [µM]
1 | C/C(=C/CC[C@](C)(OC1OC(CO)C(O)C(O)C1O)[C@H]1CC[C@]2(C)[C@@H]1CC[C@@H]1[C@@]3(C)CC[C@H](O)C(C)(C)[C@@H]3C[C@H](O)[C@]12CO)CO (some centres undefined) | > 100 | > 100 | > 100 | > 100 | > 100 | > 100 | > 100 | > 100 | > 100 | > 100 | > 100 | > 100 | > 100 | > 100 | > 100 | > 100 | > 100 | > 100
2 | O=C(CCN1CCCCC1)Nc1ccc2c(c1)C(=O)c1ccc(NC(=O)CCN3CCCCC3)cc1C2=O | 3.8 | 26.9 | 30.2 | 20.8 | 29.2 | 3.26 | 14.5 | 12.5 | 32.7 | 25.8 | 31.4 | 5.1 | 10.4 | 10.2 | 18 | 8 | 32.1 | 34.7
3 | CN(C)c1ccc(N=C2N=C(Nc3ccccc3)C(=Nc3ccccc3)S2)cc1 | > 100 | > 100 | > 100 | > 100 | > 100 | > 100 | > 100 | > 100 | > 100 | > 100 | > 100 | > 100 | > 100 | > 100 | > 100 | 81.4 | > 100 | > 100
